Data from patent US7820196B2, “Physiologically active agents containing vicinal dithioglycols and use thereof in various branches of economy” (priority 1999, dated 2010).

How the values were obtained:
broiler chickens [1] = assay: Example 6: effect of unithiol on productivity and meat quality of broiler chickens; type: in vivo; set-up: average daily gain: unit not given here
Experimental: (§1) An experiment was conducted, on the inventors' initiative, on the experimental base of the All-Russia research and technological institute for aviculture (VNITIP) during which a study was given to the following tasks: • determination of an effect produced by unithiol (DMPS) on the productivity and meat quality of broiler chickens; • effect produced by unithiol on the accumulation of heavy metal compounds (mercury, cadmium, lead) in various tissues of poultry.
(§2) The experiment was carried out in a vivarium on broiler chickens of one cross. Poultry was grown in cell batteries from one day to six-week age. The operating parameters and feeding level met the recommendation VNITIP 1999. The experiment was conducted according to the diagram on Table 1.
(§3) The poultry population: 1 and 2 groups, 35 heads each; 3,4,5 groups—6 heads each.
1. Chicks' individual live weight; weighing at the age of one day, 2-, 4-, 6 weeks.
2. Average daily live weight increase of the broilers over a 6-week period.
3. Safety of the poultry population, the daily record keeping of the broilers lost, with the causes of murrain established.
4. Feathering conditions, individual evaluation.
5. Feed consumption over a period of growing by way of the daily record keeping and weighing of specifies feed for each and every group, as calculated per head and per kg of live weight increase.
6. Dressed small carcass mass, individually weighing in slaughtering at the age of 6 weeks.
7. Dressed yield of meat as calculated.
8. Classification of small carcasses according to GOST 25391-82.
9. Meat qualities by way of anatomically dressing the small carcasses of broilers.
10. Chemical meat composition on terms of a dry substance.
12. Fatty acid meat composition.

broiler chickens [2] = assay: Example 6: effect of unithiol on accumulation of heavy metal compounds in tissues of poultry; type: in vivo
Experimental: as §1, §2, §3
13. Contained heavy metal residual compounds (mercury, cadmium, lead) in mixed feed for the broilers.
14. Evaluation of the level of meat contamination and internal organs (liver and kidneys) of the broilers with heavy metal salts.

[3] = Group 5: BR + heavy metals days 15-35, 34 mg unithiol/kg feed days 36-42
[4] = age 4 weeks, Group 2: BR + 17 mg unithiol/kg feed days 15-42
[5] = age 4 weeks, Group 4: BR + heavy metals + 17 mg unithiol/kg feed, both days 15-42
[6] = age 6 weeks, Group 2: BR + 17 mg unithiol/kg feed days 15-42
[7] = age 6 weeks, Group 4: BR + heavy metals + 17 mg unithiol/kg feed, both days 15-42
[8] = age 6 weeks, Group 5: BR + heavy metals days 15-35, 34 mg unithiol/kg feed days 36-42
[9] = Group 2: BR + 17 mg unithiol/kg feed days 15-42
[10] = Group 4: BR + heavy metals + 17 mg unithiol/kg feed, both days 15-42

**Q.** How did the “fatty acid meat composition: Fatty acids (total)” value (broiler chickens [1]; [3]) turn out when `O=S(=O)([O-])CC(S)CS.[Na+]` (stereo not drawn) [Unithiol, Sodium 2,3-Dimercaptopropane sulfonate] was run?
**A.** 26.71 mg per 100 gr of product

**Q.** What about the “fatty acid meat composition: Heptadecanoic” value (broiler chickens [1]; [3]) of the same molecule?
**A.** 0.14 mg per 100 gr of product

**Q.** And the “fatty acid meat composition: Heptadecynoic” value (broiler chickens [1]; [3])?
**A.** 0.08 mg per 100 gr of product

**Q.** And the “fatty acid meat composition: Isomyristic” value (broiler chickens [1]; [3])?
**A.** 0.06 mg per 100 gr of product

**Q.** What about the “fatty acid meat composition: Isopentadecanoic” value (broiler chickens [1]; [3]) of the same molecule?
**A.** 0.06 mg per 100 gr of product

**Q.** What about the “fatty acid meat composition: Linoleic” value (broiler chickens [1]; [3]) of the same molecule?
**A.** 6.54 mg per 100 gr of product

**Q.** And the “fatty acid meat composition: Linolenic” value (broiler chickens [1]; [3])?
**A.** 0.18 mg per 100 gr of product

**Q.** And the “fatty acid meat composition: Myristic” value (broiler chickens [1]; [3])?
**A.** 1.29 mg per 100 gr of product

**Q.** And the “fatty acid meat composition: Oleic” value (broiler chickens [1]; [3])?
**A.** 7.40 mg per 100 gr of product

**Q.** What about the “fatty acid meat composition: Palmitic” value (broiler chickens [1]; [3]) of the same molecule?
**A.** 5.73 mg per 100 gr of product

**Q.** What about the “fatty acid meat composition: Palmitoleic” value (broiler chickens [1]; [3]) of the same molecule?
**A.** 1.59 mg per 100 gr of product

**Q.** And the “fatty acid meat composition: Pentadecanoic” value (broiler chickens [1]; [3])?
**A.** 0.07 mg per 100 gr of product

**Q.** And the “fatty acid meat composition: Polyunsaturated” value (broiler chickens [1]; [3])?
**A.** 6.72 mg per 100 gr of product

**Q.** And the “fatty acid meat composition: Saturated and monounsaturated” value (broiler chickens [1]; [3])?
**A.** 19.99 mg per 100 gr of product

**Q.** And the “fatty acid meat composition: Stearic” value (broiler chickens [1]; [3])?
**A.** 3.57 mg per 100 gr of product

**Q.** What about the average daily gain (broiler chickens [1]; age 1-6 weeks, Group 2: BR + 17 mg unithiol/kg feed days 15-42) of the same molecule?
**A.** 44.0

**Q.** What about the average daily gain (broiler chickens [1]; age 1-6 weeks, Group 4: BR + heavy metals + 17 mg unithiol/kg feed, both days 15-42) of the same molecule?
**A.** 41.8

**Q.** And the average daily gain (broiler chickens [1]; age 1-6 weeks, Group 5: BR + heavy metals days 15-35, 34 mg unithiol/kg feed days 36-42)?
**A.** 41.4

**Q.** What about the average daily gain (broiler chickens [1]; age 2-4 weeks, Group 2: BR + 17 mg unithiol/kg feed days 15-42) of the same molecule?
**A.** 47.1

**Q.** And the average daily gain (broiler chickens [1]; age 2-4 weeks, Group 4: BR + heavy metals + 17 mg unithiol/kg feed, both days 15-42)?
**A.** 42.7

**Q.** What about the average daily gain (broiler chickens [1]; age 4-6 weeks, Group 2: BR + 17 mg unithiol/kg feed days 15-42) of the same molecule?
**A.** 64.1

**Q.** What about the average daily gain (broiler chickens [1]; age 4-6 weeks, Group 4: BR + heavy metals + 17 mg unithiol/kg feed, both days 15-42) of the same molecule?
**A.** 62.1

**Q.** And the average daily gain (broiler chickens [1]; age 4-6 weeks, Group 5: BR + heavy metals days 15-35, 34 mg unithiol/kg feed days 36-42)?
**A.** 64.2

**Q.** And the live weight (broiler chickens [1]; [4])?
**A.** 993.4 grams

**Q.** What about the “safety of the poultry population” value (broiler chickens [1]; [4]) of the same molecule?
**A.** 100%

**Q.** What about the live weight (broiler chickens [1]; [5]) of the same molecule?
**A.** 930.0 grams

**Q.** And the “safety of the poultry population” value (broiler chickens [1]; [5])?
**A.** 100%

**Q.** What about the live weight (broiler chickens [1]; [6]) of the same molecule?
**A.** 1890.5 grams

**Q.** And the “safety of the poultry population” value (broiler chickens [1]; [6])?
**A.** 100%

**Q.** And the live weight (broiler chickens [1]; [7])?
**A.** 1880.0 grams

**Q.** And the “safety of the poultry population” value (broiler chickens [1]; [7])?
**A.** 100%

**Q.** What about the live weight (broiler chickens [1]; [8]) of the same molecule?
**A.** 1780.0 grams

**Q.** What about the “safety of the poultry population” value (broiler chickens [1]; [8]) of the same molecule?
**A.** 83.3%

**Q.** What about the “dressed yield of meat and fatness” value (broiler chickens [1]; application of unithiol) of the same molecule?
**A.** highest level of the dressed yield of meat and also good fatness

**Q.** And the “chemical and fatty acid meat composition” value (broiler chickens [1]; unithiol in the composition of feed)?
**A.** increased polyunsaturated fatty acid content in chicken meat

**Q.** What about the “Heavy metal content: cadmium, kidneys” value (broiler chickens [2]; [9]) of the same molecule?
**A.** 0.078 mg/kg

**Q.** And the “Heavy metal content: cadmium, liver” value (broiler chickens [2]; [9])?
**A.** 0.049 mg/kg

**Q.** And the “Heavy metal content: lead, kidneys” value (broiler chickens [2]; [9])?
**A.** 0.67 mg/kg

**Q.** What about the “Heavy metal content: lead, liver” value (broiler chickens [2]; [9]) of the same molecule?
**A.** 0.40 mg/kg

**Q.** What about the “Heavy metal content: mercury, kidneys” value (broiler chickens [2]; [9]) of the same molecule?
**A.** 0.055 mg/kg

**Q.** And the “Heavy metal content: mercury, liver” value (broiler chickens [2]; [9])?
**A.** 0.039 mg/kg

**Q.** And the “Heavy metal content: zinc, kidneys” value (broiler chickens [2]; [9])?
**A.** 95.3 mg/kg

**Q.** What about the “Heavy metal content: zinc, liver” value (broiler chickens [2]; [9]) of the same molecule?
**A.** 104.1 mg/kg

**Q.** And the “Heavy metal content: zinc, muscular tissue” value (broiler chickens [2]; [9])?
**A.** 50.2 mg/kg

**Q.** And the “Heavy metal content: cadmium, kidneys” value (broiler chickens [2]; [10])?
**A.** 3.76 mg/kg

**Q.** What about the “Heavy metal content: cadmium, liver” value (broiler chickens [2]; [10]) of the same molecule?
**A.** 2.98 mg/kg

**Q.** What about the “Heavy metal content: cadmium, muscular tissue” value (broiler chickens [2]; [10]) of the same molecule?
**A.** 0.37 mg/kg

**Q.** What about the “Heavy metal content: lead, kidneys” value (broiler chickens [2]; [10]) of the same molecule?
**A.** 8.50 mg/kg

**Q.** And the “Heavy metal content: lead, liver” value (broiler chickens [2]; [10])?
**A.** 4.80 mg/kg

**Q.** And the “Heavy metal content: lead, muscular tissue” value (broiler chickens [2]; [10])?
**A.** 0.83 mg/kg

**Q.** And the “Heavy metal content: mercury, kidneys” value (broiler chickens [2]; [10])?
**A.** 2.00 mg/kg

**Q.** What about the “Heavy metal content: mercury, liver” value (broiler chickens [2]; [10]) of the same molecule?
**A.** 2.18 mg/kg

**Q.** What about the “Heavy metal content: mercury, muscular tissue” value (broiler chickens [2]; [10]) of the same molecule?
**A.** 0.375 mg/kg

**Q.** What about the “Heavy metal content: zinc, kidneys” value (broiler chickens [2]; [10]) of the same molecule?
**A.** 103.1 mg/kg

**Q.** And the “Heavy metal content: zinc, liver” value (broiler chickens [2]; [10])?
**A.** 107.2 mg/kg

**Q.** What about the “Heavy metal content: zinc, muscular tissue” value (broiler chickens [2]; [10]) of the same molecule?
**A.** 50.4 mg/kg

**Q.** What about the “Heavy metal content: cadmium, kidneys” value (broiler chickens [2]; [3]) of the same molecule?
**A.** 2.97 mg/kg

**Q.** And the “Heavy metal content: cadmium, liver” value (broiler chickens [2]; [3])?
**A.** 2.30 mg/kg

**Q.** What about the “Heavy metal content: cadmium, muscular tissue” value (broiler chickens [2]; [3]) of the same molecule?
**A.** 0.24 mg/kg

**Q.** And the “Heavy metal content: lead, kidneys” value (broiler chickens [2]; [3])?
**A.** 7.00 mg/kg

**Q.** What about the “Heavy metal content: lead, liver” value (broiler chickens [2]; [3]) of the same molecule?
**A.** 3.40 mg/kg

**Q.** What about the “Heavy metal content: lead, muscular tissue” value (broiler chickens [2]; [3]) of the same molecule?
**A.** 0.54 mg/kg

**Q.** And the “Heavy metal content: mercury, kidneys” value (broiler chickens [2]; [3])?
**A.** 1.05 mg/kg

**Q.** And the “Heavy metal content: mercury, liver” value (broiler chickens [2]; [3])?
**A.** 1.12 mg/kg

**Q.** What about the “Heavy metal content: mercury, muscular tissue” value (broiler chickens [2]; [3]) of the same molecule?
**A.** 0.328 mg/kg

**Q.** What about the “Heavy metal content: zinc, kidneys” value (broiler chickens [2]; [3]) of the same molecule?
**A.** 98.2 mg/kg

**Q.** And the “Heavy metal content: zinc, liver” value (broiler chickens [2]; [3])?
**A.** 104.3 mg/kg

**Q.** What about the “Heavy metal content: zinc, muscular tissue” value (broiler chickens [2]; [3]) of the same molecule?
**A.** 50.3 mg/kg

**Q.** What about the “heavy metal salt content in the depositing organs and meat” value (broiler chickens [2]; use of unithiol) of the same molecule?
**A.** considerably reduce a heavy metal salt content
